Results as given in US11331369B2, “Endoparasitic depsipeptides” (Zoetis Services LLC, priority 2017, dated 2022).

How the values were obtained:
Format in all cases: cell-based
[1] = system: microfilariae of Dirofilaria immitis; assay: Dirofilaria immitis, Microfilaria (DiMF) In vitro Assay; conditions: 72 h, read-out: DiMF Minimum Effective Dose (MED), approximately 72 hours incubation, microfilariae assessed for survival or paralysis
[2] = system: 4th stage larvae (L4) of Dirofilaria immitis; assay: Dirofilaria immitis, L4 Stage (DiL4) In Vitro Assay; conditions: Dirofilaria immitis, 72 h, read-out: DiL4 Minimum Effective Dose (MED), approximately 72 hours incubation; L4 larvae assessed for survival or paralysis
[3] = system: third stage larvae of Haemonchus contortus; assay: Haemonchus contortus L3 (HcL3) Assay; conditions: 96 h, read-out: HcL3 Minimum Effective Dose (MED)

| Compound | minimal effective concentration [1] [µM] | minimal effective concentration [2] [µM] | minimal effective concentration [3] [µM] |
| --- | --- | --- | --- |
| CC(C)C[C@H]1C(=O)O[C@H](Cc2ccc(Cn3ccnc3Br)cc2)C(=O)N(C)[C@@H](CC(C)C)C(=O)O[C@H](C)C(=O)N(C)[C@@H](CC(C)C)C(=O)O[C@H](Cc2ccccc2)C(=O)N(C)[C@@H](CC(C)C)C(=O)O[C@H](C)C(=O)N1C [Example 8-3, (3S,6R,9S,12R,15S,18R,21S,24R)-6-benzyl-18-[[4-[(2-bromoimidazol-1-yl)methyl]phenyl]methyl]-3,9,15,21-tetraisobutyl-4,10,12,16,22,24-hexamethyl-1,7,13,19-tetraoxa-4,10,16,22-tetrazacyclotetracosane-2,5,8,11,14,17,20,23-octaone] | 0.001 to 0.01 | 0.0001 to 0.001 | 1 to 10 |
| CCOc1ccn(Cc2ccc(C[C@H]3OC(=O)[C@H](CC(C)C)N(C)C(=O)[C@@H](C)OC(=O)[C@H](CC(C)C)N(C)C(=O)[C@@H](Cc4ccc(Cn5ccc(OCC)n5)cc4)OC(=O)[C@H](CC(C)C)N(C)C(=O)[C@@H](C)OC(=O)[C@H](CC(C)C)N(C)C3=O)cc2)n1 [Example 1b-104, (3S,6R,9S,12R,15S,18R,21S,24R)-6,18-bis(4-((3-ethoxy-1H-pyrazol-1-yl)methyl)benzyl)-3,9,15,21-tetraisobutyl-4,10,12,16,22,24-hexamethyl-1,7,13,19-tetraoxa-4,10,16,22-tetraazacyclotetracosan-2,5,8,11,14,17,20,23-octaone] |  | 0.0001 to 0.001 | ≤ 1 |
| CC(C)C[C@H]1C(=O)O[C@H](Cc2ccc(C3(n4cc(OC(C)C)cn4)CCC3)cc2)C(=O)N(C)[C@@H](CC(C)C)C(=O)O[C@H](C)C(=O)N(C)[C@@H](CC(C)C)C(=O)O[C@H](Cc2ccc(C3(n4cc(OC(C)C)cn4)CCC3)cc2)C(=O)N(C)[C@@H](CC(C)C)C(=O)O[C@H](C)C(=O)N1C [Example 1c-3, (3S,6R,9S,12R,15S,18R,21S,24R)-3,9,15,21-tetraisobutyl-6,18-bis(4-(1-(4-isopropoxy-1H-pyrazol-1-yl)cyclobutyl)benzyl)-4,10,12,16,22,24-hexamethyl-1,7,13,19-tetraoxa-4,10,16,22-tetraazacyclotetracosan-2,5,8,11,14,17,20,23-octaone] |  | ≤ 0.0001 | ≤ 1 |
| CC(C)C[C@H]1C(=O)O[C@H](Cc2ccc(C3(n4cccn4)CCC3)cc2)C(=O)N(C)[C@@H](CC(C)C)C(=O)O[C@H](C)C(=O)N(C)[C@@H](CC(C)C)C(=O)O[C@H](Cc2ccc(C3(n4cccn4)CCC3)cc2)C(=O)N(C)[C@@H](CC(C)C)C(=O)O[C@H](C)C(=O)N1C [Example 1c-1, (3S,6R,9S,12R,15S,18R,21S,24R)-6,18-bis(4-(1-(1H-pyrazol-1-yl)cyclobutyl)benzyl)-3,9,15,21-tetraisobutyl-4,10,12,16,22,24-hexamethyl-1,7,13,19-tetraoxa-4,10,16,22-tetraazacyclotetracosan-2,5,8,11,14,17,20,23-octaone] |  | ≤ 0.0001 | ≤ 1 |
| CC(C)C[C@H]1C(=O)O[C@H](Cc2ccc(Cn3cccn3)cc2)C(=O)N(C)[C@@H](CC(C)C)C(=O)O[C@H](C)C(=O)N(C)[C@@H](CC(C)C)C(=O)O[C@H](Cc2ccccc2)C(=O)N(C)[C@@H](CC(C)C)C(=O)O[C@H](C)C(=O)N1C [Example 2-1, (3S,6R,9S,12R,15S,18R,21S,24R)-6-benzyl-3,9,15,21-tetraisobutyl-4,10,12,16,22,24-hexamethyl-18-[[4-(pyrazol-1-ylmethyl)phenyl]methyl]-1,7,13,19-tetraoxa-4,10,16,22-tetrazacyclotetracosane-2,5,8,11,14,17,20,23-octaone] |  | 0.0001 to 0.001 | 1 to 10 |
| CC(C)C[C@H]1C(=O)O[C@H](Cc2ccc(Cn3nccc3-c3cnccn3)cc2)C(=O)N(C)[C@@H](CC(C)C)C(=O)O[C@H](C)C(=O)N(C)[C@@H](CC(C)C)C(=O)O[C@H](Cc2ccc(Cn3nccc3-c3cnccn3)cc2)C(=O)N(C)[C@@H](CC(C)C)C(=O)O[C@H](C)C(=O)N1C [Example 1b-208, (3S,6R,9S,12R,15S,18R,21S,24R)-3,9,15,21-tetraisobutyl-4,6,10,16,18,22-hexamethyl-12,24-bis(4-((5-(pyrazin-2-yl)-1H-pyrazol-1-yl)methyl)benzyl)-1,7,13,19-tetraoxa-4,10,16,22-tetraazacyclotetracosan-2,5,8,11,14,17,20,23-octaone] |  | 0.001 to 0.01 | 10 to 100 |
| CCOCc1ccnn1Cc1ccc(C[C@H]2OC(=O)[C@H](CC(C)C)N(C)C(=O)[C@@H](C)OC(=O)[C@H](CC(C)C)N(C)C(=O)[C@@H](Cc3ccc(Cn4nccc4COCC)cc3)OC(=O)[C@H](CC(C)C)N(C)C(=O)[C@@H](C)OC(=O)[C@H](CC(C)C)N(C)C2=O)cc1 [Example 1b-176, (3S,6R,9S,12R,15S,18R,21S,24R)-6,18-bis(4-((5-(ethoxymethyl)-1H-pyrazol-1-yl)methyl)benzyl)-3,9,15,21-tetraisobutyl-4,10,12,16,22,24-hexamethyl-1,7,13,19-tetraoxa-4,10,16,22-tetraazacyclotetracosan-2,5,8,11,14,17,20,23-octaone] |  | ≤ 0.0001 | ≤ 1 |
| COC(C)c1ccnn1Cc1ccc(C[C@H]2OC(=O)[C@H](CC(C)C)N(C)C(=O)[C@@H](C)OC(=O)[C@H](CC(C)C)N(C)C(=O)[C@@H](Cc3ccc(Cn4nccc4C(C)OC)cc3)OC(=O)[C@H](CC(C)C)N(C)C(=O)[C@@H](C)OC(=O)[C@H](CC(C)C)N(C)C2=O)cc1 (stereo partly drawn) [Example 1b-212, (3S,6R,9S,12R,15S,18R,21S,24R)-3,9,15,21-tetraisobutyl-6,18-bis(4-((5-(1-methoxyethyl)-1H-pyrazol-1-yl)methyl)benzyl)-4,10,12,16,22,24-hexamethyl-1,7,13,19-tetraoxa-4,10,16,22-tetraazacyclotetracosan-2,5,8,11,14,17,20,23-octaone] |  | 0.0001 to 0.001 | ≤ 1 |
| CC(C)C[C@H]1C(=O)O[C@H](Cc2ccc(Cn3ncnc3C3CCC3)cc2)C(=O)N(C)[C@@H](CC(C)C)C(=O)O[C@H](C)C(=O)N(C)[C@@H](CC(C)C)C(=O)O[C@H](Cc2ccc(Cn3ncnc3C3CCC3)cc2)C(=O)N(C)[C@@H](CC(C)C)C(=O)O[C@H](C)C(=O)N1C [Example 9-54, (3S,6R,9S,12R,15S,18R,21S,24R)-6,18-bis(4-((5-cyclobutyl-1H-1,2,4-triazol-1-yl)methyl)benzyl)-3,9,15,21-tetraisobutyl-4,10,12,16,22,24-hexamethyl-1,7,13,19-tetraoxa-4,10,16,22-tetraazacyclotetracosan-2,5,8,11,14,17,20,23-octaone] |  | 0.001 to 0.01 | 1 to 10 |
| Cc1nn(Cc2ccc(C[C@H]3OC(=O)[C@H](CC(C)C)N(C)C(=O)[C@@H](C)OC(=O)[C@H](CC(C)C)N(C)C(=O)[C@@H](Cc4ccc(Cn5nc(C)c(O)c5C)cc4)OC(=O)[C@H](CC(C)C)N(C)C(=O)[C@@H](C)OC(=O)[C@H](CC(C)C)N(C)C3=O)cc2)c(C)c1O [Example 1b-16, (3S,6R,9S,12R,15S,18R,21S,24R)-6,18-bis({4-[(4-hydroxy-3,5-dimethyl-1H-pyrazol-1-yl)methyl]phenyl}methyl)-4,10,12,16,22,24-hexamethyl-3,9,15,21-tetrakis(2-methylpropyl)-1,7,13,19-tetraoxa-4,10,16,22-tetraazacyclotetracosan-2,5,8,11,14,17,20,23-octaone] |  | 0.0001 to 0.001 | 1 to 10 |
| CC(C)C[C@H]1C(=O)O[C@H](Cc2ccc(Cn3cc(-c4ccncn4)cn3)cc2)C(=O)N(C)[C@@H](CC(C)C)C(=O)O[C@H](C)C(=O)N(C)[C@@H](CC(C)C)C(=O)O[C@H](Cc2ccc(Cn3cc(-c4ccncn4)cn3)cc2)C(=O)N(C)[C@@H](CC(C)C)C(=O)O[C@H](C)C(=O)N1C [Example 1b-86, (3S,6R,9S,12R,15S,18R,21S,24R)-3,9,15,21-tetraisobutyl-4,6,10,16,18,22-hexamethyl-12,24-bis(4-((4-(pyrimidin-4-yl)-1H-pyrazol-1-yl)methyl)benzyl)-1,7,13,19-tetraoxa-4,10,16,22-tetraazacyclotetracosan-2,5,8,11,14,17,20,23-octaone] |  | 0.0001 to 0.001 | 10 to 100 |
| C#Cc1cnn(Cc2ccc(C[C@H]3OC(=O)[C@H](CC(C)C)N(C)C(=O)[C@@H](C)OC(=O)[C@H](CC(C)C)N(C)C(=O)[C@@H](Cc4ccc(Cn5cc(C#C)cn5)cc4)OC(=O)[C@H](CC(C)C)N(C)C(=O)[C@@H](C)OC(=O)[C@H](CC(C)C)N(C)C3=O)cc2)c1 [Example 1b-32, (3S,6R,9S,12R,15S,18R,21S,24R)-6,18-bis({4-[(4-ethynyl-1H-pyrazol-1 yl)methyl]phenyl}methyl)-4,10,12,16,22,24-hexamethyl-3,9,15,21-tetrakis(2-methylpropyl)-1,7,13,19-tetraoxa-4,10,16,22-tetraazacyclotetracosan-2,5,8,11,14,17,20,23-octaone] |  | 0.0001 to 0.001 | 10 to 100 |
| CC(C)C[C@H]1C(=O)O[C@H](Cc2ccc(Cn3c(C#N)ccc3C#N)cc2)C(=O)N(C)[C@@H](CC(C)C)C(=O)O[C@H](C)C(=O)N(C)[C@@H](CC(C)C)C(=O)O[C@H](Cc2ccccc2)C(=O)N(C)[C@@H](CC(C)C)C(=O)O[C@H](C)C(=O)N1C [Example 10-31, 1-(4-(((2R,5S,8R,11S,14R,17S,20R,23S)-14-benzyl-5,11,17,23-tetraisobutyl-4,8,10,16,20,22-hexamethyl-3,6,9,12,15,18,21,24-octaoxo-1,7,13,19-tetraoxa-4,10,16,22-tetraazacyclotetracosan-2-yl)methyl)benzyl)-1H-pyrrole-2,5-dicarbonitrile] |  | ≤ 0.0001 | 1 to 10 |
